As usually defined, the IC50 is the midpoint of a concentration-inhibition curve.

One assay deals with KRAS^G12C-SOS1 (Homo sapiens (Human), UniProt P01116, G12C). Nature of the assay: HTRF KRAS G12C/SOS1 binding assay. To be noted: Table 5. As to the method: Initially, a 2 mM stock solution of the test compound (dissolved in DMSO) was serially diluted in five-fold concentrations using DMSO to obtain eight working solutions 1 (200×). Subsequently, each of the eight working solutions 1 was further diluted in a 20-fold gradient by adding 5 μL into 95 μL of Diluent buffer, mixed completely with vortex mixer, resulting in eight working solutions 2 (10×). […] Subsequently, 5 μL of Anti-tag 1-Tb^3+ stock solution and 5 μL of Anti-tag2-XL665 were added to each well, mixed, and incubated at 4° C. for 3 hours. Remove the plate and read on an HTRF® compatible reader, with the excitation light wavelength set at 337 nm and readings recorded at 620 nm and 665 nm. The data results were presented as the ratio of the 665 nm signal value to the 620 nm signal value for each well, calculated as follows: […]. The inhibition rate was calculated using the following formula: […]
Chain of KRAS^G12C-SOS1 (P01116-2 other isoform, or with tags, fused parts or gaps G12C): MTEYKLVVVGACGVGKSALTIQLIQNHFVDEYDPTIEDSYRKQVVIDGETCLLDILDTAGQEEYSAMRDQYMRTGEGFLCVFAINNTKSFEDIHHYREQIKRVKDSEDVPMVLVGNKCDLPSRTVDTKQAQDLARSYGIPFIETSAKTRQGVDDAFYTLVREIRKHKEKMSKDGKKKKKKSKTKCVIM
Data were analyzed using GraphPad Prism with log (inhibitor) vs. response-Variable Slope (four parameters) fitting calculations for IC50 values.
For orientation: Time-resolved FRET reads energy transfer from a long-lived donor to a nearby acceptor.

For assay [1], the system named is MIA PaCa-2 cells (KRAS G12C mutant). Nature of the assay: MIA PaCa-2 cell anti-proliferation (CellTiter-Glo). Format: cell-based. To be noted: MIA Paca-2 cells, 3 days, Table 7, read-out: MIA PaCa-2 (IC50). The essentials:
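Viable-cell luminescence (CellTiter-Glo, ≥30 min at 25 °C) measured after a 3-day, 37 °C exposure to compounds at 9 points, 4-fold spaced, in DMEM containing 10% FBS plus 2.5% horse serum. IC50 derived versus no-inhibitor wells.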
(In ATP-based viability assays light output follows the ATP content of the culture.)

Assay [2] deals with NCI-H358-AMGR drug-resistant cell line. Description: NCI-H358-AMGR drug-resistant cell proliferation inhibitory activity test. To be noted: NCI-H358-AMGR drug-resistant cells, 3 days incubation, CellTiter-Glo. Format: cell-based. The method, boiled down:
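Luminescent CellTiter-Glo read-out after 3-day, 37° C compound exposure (8 points, 5-fold series) of AMG510-resistant NCI-H358 cells plated at 4×10^3 per well.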

A further assay concerns the target PI3Kδ (Homo sapiens (Human), UniProt O00329). Description: Inhibition of PI3Kδ efficacy assay (ADP-Glo kinase assay). Format: biochemical. To be noted: read-out: PI3Kδ inhibitory activity (IC50). The method, boiled down:
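Luminescent ADP-Glo readout of PI3Kδ: after a 60 min RT reaction with PI/ATP substrate, ATP depletion (40 min) and ADP detection (40 min) steps followed. Compounds tested as eight five-fold serial dilutions; inhibition rates fitted to log(inhibitor) vs. response, variable slope, for IC50.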

Another assay deals with PI3Kα (Homo sapiens (Human), UniProt P42336). Nature of the assay: Inhibition of PI3Kα efficacy assay (ADP-Glo kinase assay). To be noted: read-out: PI3Kα inhibitory activity (IC50). Type of assay: biochemical. The essentials: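 Eight five-fold dilutions of compound (2 mM DMSO stock) tested; kinase reaction with PI and ATP ran 60 min at RT, followed by ADP-Glo and detection reagent steps of 40 min each. Four-parameter logistic fitting gave IC50 values.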
Chain of PI3Kα (P42336 whole entry): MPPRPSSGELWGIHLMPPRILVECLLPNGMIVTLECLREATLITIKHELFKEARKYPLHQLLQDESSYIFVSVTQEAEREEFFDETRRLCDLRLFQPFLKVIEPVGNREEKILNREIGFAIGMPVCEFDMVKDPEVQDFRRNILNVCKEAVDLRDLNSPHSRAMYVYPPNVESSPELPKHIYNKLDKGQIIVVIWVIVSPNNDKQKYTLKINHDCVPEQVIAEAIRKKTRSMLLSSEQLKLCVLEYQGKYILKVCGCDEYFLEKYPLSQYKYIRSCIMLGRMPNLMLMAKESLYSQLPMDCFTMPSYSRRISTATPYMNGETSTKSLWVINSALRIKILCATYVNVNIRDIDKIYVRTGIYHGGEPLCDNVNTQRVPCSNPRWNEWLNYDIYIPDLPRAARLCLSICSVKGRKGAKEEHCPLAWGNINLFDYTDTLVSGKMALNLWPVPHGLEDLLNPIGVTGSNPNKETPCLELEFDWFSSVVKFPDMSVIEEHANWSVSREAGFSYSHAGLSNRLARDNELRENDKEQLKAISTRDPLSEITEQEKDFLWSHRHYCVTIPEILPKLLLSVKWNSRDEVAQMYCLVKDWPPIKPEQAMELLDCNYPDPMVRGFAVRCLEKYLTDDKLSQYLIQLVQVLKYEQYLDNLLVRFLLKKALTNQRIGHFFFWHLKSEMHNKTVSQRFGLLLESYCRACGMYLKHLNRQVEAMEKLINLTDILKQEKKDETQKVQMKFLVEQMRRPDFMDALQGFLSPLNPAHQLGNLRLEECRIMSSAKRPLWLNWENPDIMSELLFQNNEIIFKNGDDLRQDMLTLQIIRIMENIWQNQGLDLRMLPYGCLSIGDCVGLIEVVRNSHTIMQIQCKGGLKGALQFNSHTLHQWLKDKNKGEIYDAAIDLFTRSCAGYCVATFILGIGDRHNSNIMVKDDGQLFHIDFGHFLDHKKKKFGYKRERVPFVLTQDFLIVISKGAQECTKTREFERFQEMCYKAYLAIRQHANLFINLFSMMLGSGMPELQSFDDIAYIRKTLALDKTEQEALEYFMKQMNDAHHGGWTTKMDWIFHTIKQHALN
Chain of PI3Kα (P27986 whole entry partner): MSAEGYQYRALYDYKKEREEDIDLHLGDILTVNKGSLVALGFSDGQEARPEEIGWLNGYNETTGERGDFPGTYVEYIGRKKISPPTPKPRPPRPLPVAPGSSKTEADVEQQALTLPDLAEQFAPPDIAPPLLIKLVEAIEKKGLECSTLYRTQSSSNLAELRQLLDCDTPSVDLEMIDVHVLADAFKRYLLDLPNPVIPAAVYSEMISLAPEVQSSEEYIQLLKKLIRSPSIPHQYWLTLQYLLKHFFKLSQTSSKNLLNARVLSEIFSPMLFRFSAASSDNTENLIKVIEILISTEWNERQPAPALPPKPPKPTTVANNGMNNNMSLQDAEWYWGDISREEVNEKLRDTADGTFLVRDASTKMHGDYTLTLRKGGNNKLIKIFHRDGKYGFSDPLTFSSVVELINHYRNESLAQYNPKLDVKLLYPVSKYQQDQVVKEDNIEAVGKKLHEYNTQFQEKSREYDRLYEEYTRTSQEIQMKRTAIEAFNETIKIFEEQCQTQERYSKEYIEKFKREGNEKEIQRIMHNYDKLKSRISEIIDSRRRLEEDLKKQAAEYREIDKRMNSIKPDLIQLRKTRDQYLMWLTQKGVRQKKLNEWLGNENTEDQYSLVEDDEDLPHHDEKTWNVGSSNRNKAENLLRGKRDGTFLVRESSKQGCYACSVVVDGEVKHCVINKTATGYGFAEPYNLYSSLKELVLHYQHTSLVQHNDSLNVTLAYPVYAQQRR

Each structure is given as a SMILES string. Like-named read-outs stand apart in the source and are kept apart here.

Chain of PI3Kδ (O00329 whole entry): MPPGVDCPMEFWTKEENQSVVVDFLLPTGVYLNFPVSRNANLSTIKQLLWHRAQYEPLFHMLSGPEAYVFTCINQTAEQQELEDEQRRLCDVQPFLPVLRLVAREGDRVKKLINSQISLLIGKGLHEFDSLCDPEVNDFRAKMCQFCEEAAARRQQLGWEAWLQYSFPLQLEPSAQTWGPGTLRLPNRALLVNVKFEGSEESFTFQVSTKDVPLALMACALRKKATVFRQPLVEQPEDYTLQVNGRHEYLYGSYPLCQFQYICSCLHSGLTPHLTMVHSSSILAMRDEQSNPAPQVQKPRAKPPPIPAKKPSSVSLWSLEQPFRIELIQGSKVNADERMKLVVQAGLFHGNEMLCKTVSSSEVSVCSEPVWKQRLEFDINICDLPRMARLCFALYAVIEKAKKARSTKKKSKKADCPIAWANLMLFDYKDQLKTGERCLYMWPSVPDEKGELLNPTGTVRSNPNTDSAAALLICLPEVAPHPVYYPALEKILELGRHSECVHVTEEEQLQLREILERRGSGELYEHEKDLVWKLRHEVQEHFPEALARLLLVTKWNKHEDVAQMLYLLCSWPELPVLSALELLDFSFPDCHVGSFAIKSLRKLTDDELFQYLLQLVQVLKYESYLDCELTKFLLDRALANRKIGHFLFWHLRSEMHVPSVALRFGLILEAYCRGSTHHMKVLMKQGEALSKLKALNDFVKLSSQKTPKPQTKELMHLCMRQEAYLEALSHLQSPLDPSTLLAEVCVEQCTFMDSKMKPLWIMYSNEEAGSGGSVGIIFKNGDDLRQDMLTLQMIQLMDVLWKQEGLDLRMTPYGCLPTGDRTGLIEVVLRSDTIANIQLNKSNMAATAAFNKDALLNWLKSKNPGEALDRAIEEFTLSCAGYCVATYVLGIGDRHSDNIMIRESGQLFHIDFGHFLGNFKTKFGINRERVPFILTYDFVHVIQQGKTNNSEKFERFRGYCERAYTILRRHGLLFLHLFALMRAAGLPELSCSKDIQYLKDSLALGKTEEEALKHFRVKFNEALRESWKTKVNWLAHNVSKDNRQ
Chain of PI3Kδ (P27986 whole entry partner): as the sequence (P27986 whole entry partner) above

For `COc1ncc(-c2ccc3ncnc(N4CCN(C(=O)/C=C/C(C)=O)CC4)c3c2)cc1NS(=O)(=O)c1ccc(F)cc1F` [Example 6, (E)-2,4-difluoro-N-(2-methoxy-5-(4-(4-(4-oxopent-2-enoyl)piperazin-1-yl)quinazoline-6-yl)pyridin-3-yl)benzenesulfonamide], the IC50 at KRAS^G12C-SOS1 turned out to be 323 nM; in assay [1] (Homo sapiens, 72 h), 17.1 nM; in assay [2] (72 h) it was 15.6 nM; at PI3Kδ (Table 1) it was 10.9 nM.
As for `C=CC(=O)N1CCN(c2ncnc3ccc(-c4cnc(OC)c(NS(=O)(=O)c5ccc(F)cc5F)c4)cc23)[C@@H](C)C1` [Example 7, (S)—N-(5-(4-(4-acryloyl-2-methylpiperazin-1-yl)quinazolin-6-yl)-2-methoxypyridin-3-yl)-2,4-difluorobenzenesulfonamide], the IC50 in assay [1] (Homo sapiens, 72 h) came out at 32.3 nM; in assay [2] (72 h), 41.7 nM; on PI3Kδ (Table 1), 12 nM; at PI3Kα (Table 1) it was 1.4 nM.
Regarding `COc1ncc(-c2ccc3ncnc(N4CCN(C(=O)/C=C/n5ccnn5)CC4)c3c2)cc1NS(=O)(=O)c1ccc(F)cc1F` [Example 10, (E)-N-(5-(4-(4-(3-(1H-1,2,3-triazol-1-yl)acryloyl)piperazin-1-yl)quinazolin-6-yl)-2-methoxypyridin-3-yl)-2,4-difluorobenzenesulfonamide], the IC50 was 83.2 nM in assay [1] (Homo sapiens, 72 h); 86.6 nM in assay [2] (72 h); 16.7 nM at PI3Kδ (Table 1); 0.44 nM on PI3Kα (Table 1).
Regarding `COc1ncc(-c2ccc3ncnc(N4C[C@@H](C)N(C(=O)/C=C/C(C)=O)C[C@@H]4C)c3c2)cc1NS(=O)(=O)c1ccc(F)cc1F` [Example 15, N-(5-(4-((2S,5R)-2,5-dimethyl-4-((E)-4-oxopent-2-enoyl)piperazin-1-yl)quinazolin-6-yl)-2-methoxypyridin-3-yl)-2,4-difluorobenzenesulfonamide], the IC50 came to 558 nM on KRAS^G12C-SOS1; 71.1 nM in assay [1] (Homo sapiens, 72 h); 62.1 nM in assay [2] (72 h); 130 nM at PI3Kδ (Table 1); 10.2 nM on PI3Kα (Table 1).
On to `CCCC(=O)/C=C/C(=O)N1CCN(c2ncnc3ccc(-c4cnc(OC)c(NS(=O)(=O)c5ccc(F)cc5F)c4)cc23)CC1` [Example 17, (E)-2,4-difluoro-N-(2-methoxy-5-(4-(4-(4-oxohept-2-enoyl)piperazin-1-yl)quinazolin-6-yl)pyridin-3-yl)benzenesulfonamide], for which the IC50 was 313 nM at KRAS^G12C-SOS1; 87.9 nM in assay [1] (Homo sapiens, 72 h); 53.3 nM in assay [2] (72 h); 31 nM at PI3Kδ (Table 1); 2.3 nM at PI3Kα (Table 1).
For the compound `COc1ncc(-c2ccc3ncnc(N4CCC5(CC4)CN(C(=O)/C=C/C(C)=O)C5)c3c2)cc1NS(=O)(=O)c1ccc(F)cc1F` [Example 20, (E)-2,4-difluoro-N-(2-methoxy-5-(4-(2-(4-oxopent-2-enoyl)-2,7-diazaspiro[3.5]nonan-7-yl)quinazolin-6-yl)pyridin-3-yl)benzenesulfonamide], the IC50 on KRAS^G12C-SOS1 was found to be 239 nM; in assay [1] (Homo sapiens, 72 h) it was 64.1 nM; in assay [2] (72 h), 48.7 nM; on PI3Kδ (Table 1), 212 nM; on PI3Kα (Table 1) it was 7.4 nM.
The like results for `COc1ncc(-c2ccc3ncnc(N4CCN(C(=O)/C=C/C(C)=O)CC4)c3c2)cc1NS(=O)(=O)c1c(F)cccc1F` [Example 22, (E)-2,6-difluoro-N-(2-methoxy-5-(4-(4-(4-oxopent-2-enoyl)piperazin-1-yl)quinazolin-6-yl)pyridin-3-yl)benzenesulfonamide] were, in that order, 149 nM, 92.1 nM, 47.9 nM, 82.8 nM and 11.6 nM.
On to `COc1ncc(-c2ccc3ncnc(N4CCC5(CN(C(=O)/C=C/C(C)=O)C5)C4)c3c2)cc1NS(=O)(=O)c1c(F)cccc1F` [Example 42], for which the IC50 at KRAS^G12C-SOS1 amounted to 109 nM; in assay [1] it was 284 nM; in assay [2], 132 nM; on PI3Kδ (Table 2), 16.5 nM; at PI3Kα, 1.5 nM.
`COc1ncc(-c2ccc3ncnc(N4CCN(C5CN(C(=O)/C=C/C(C)=O)C5)CC4)c3c2)cc1NS(=O)(=O)c1ccc(F)cc1F` [Example 56, (E)-2,4-difluoro-N-(2-methoxy-5-(4-(4-(1-(4-oxopent-2-enoyl)azetidin-3-yl)piperazin-1-yl)quinazolin-6-yl)pyridin-3-yl)benzenesulfon-amide]: the IC50 at KRAS^G12C-SOS1 was found to be 471 nM; in assay [2] (72 h), 116 nM; at PI3Kδ (Table 2) it was 37.2 nM; on PI3Kα (Table 2) it was 4.4 nM.
`COc1ncc(-c2ccc3ncnc(N4CCC5(CC=CC5=O)CC4)c3c2)cc1NS(=O)(=O)c1ccc(F)cc1F` [Example 70, 2,4-difluoro-N-(2-methoxy-5-(4-(1-oxo-8-azaspiro[4,5]dec-2-en-8-yl)quinazolin-6-yl)pyridin-3-yl)benzenesulfonamide]: the IC50 in assay [1] (Homo sapiens, 72 h) was 40.1 nM; in assay [2] (72 h) it was 74.5 nM; on PI3Kδ (Table 2), 35 nM; on PI3Kα (Table 2), 8.8 nM.
On to `COc1ncc(-c2ccc3ncnc(N4CCN(C(=O)/C=C/C(C)=O)CC4)c3c2)cc1NS(=O)(=O)c1cccc(F)c1F` [Example 90, (E)-2,3-difluoro-N-(2-methoxy-5-(4-(4-(4-oxopent-2-enoyl)piperazin-1-yl)quinazolin-6-yl)pyridin-3-yl)benzenesulfonamide], for which the IC50 in assay [1] (Homo sapiens, 72 h) amounted to 51.9 nM; in assay [2] (72 h), 56.2 nM; at PI3Kδ (Table 2) it was 23.7 nM; at PI3Kα (Table 2) it was 4 nM.
As to `COc1ncc(-c2ccc3ncnc(N4CCN(C(=O)/C=C/C(C)=O)CC4)c3c2)cc1NS(=O)(=O)c1ccc(C#N)cc1F` [Example 123, (E)-4-cyano-2-fluoro-N-(2-methoxy-5-(4-(4-(4-oxopent-2-enoyl)piperazin-1-yl)quinazolin-6-yl)pyridin-3-yl)benzenesulfonamide], the IC50 in assay [1] (Homo sapiens, 72 h) is 84.1 nM; in assay [2] (72 h) it was 118 nM; at PI3Kδ (Table 2), 31.4 nM; on PI3Kα (Table 2), 9.1 nM.
Turning to `CC(=O)/C=C/C(=O)N1CCN(c2ncnc3ccc(-c4cnc(OCC(F)(F)F)c(NS(=O)(=O)c5ccc(F)cc5F)c4)cc23)CC1` [Example 159, (E)-2,4-difluoro-N-(5-(4-(4-(4-oxopent-2-enoyl)piperazin-1-yl)quinazolin-6-yl)-2-(2,2,2-trifluoroethoxy)pyridin-3-yl)benzenesulfonamide], the IC50 was determined as 357 nM in assay [1] (Homo sapiens, 72 h); 361 nM in assay [2] (72 h); 91.7 nM on PI3Kδ (Table 4); 11.8 nM at PI3Kα (Table 4).
`COc1ncc(-c2ccc3ncnc(N4CCN(C(=O)/C=C/C(C)=O)CC4)c3c2)cc1NS(C)(=O)=O` [Example 170, (E)-N-(2-methoxy-5-(4-(4-(4-oxopent-2-enoyl)piperazin-1-yl)quinazolin-6-yl)pyridin-3-yl)methane-sulfonamide]: the IC50 in assay [1] (Homo sapiens, 72 h) worked out at 118 nM; in assay [2] (72 h) it was 380 nM; at PI3Kδ (Table 4) it was 17 nM; on PI3Kα (Table 4), 7 nM.
In the case of `COC(=O)c1ncc(-c2ccc3ncnc(N4CCN(C(=O)/C=C/C(C)=O)CC4)c3c2)cc1NS(=O)(=O)c1ccc(F)cc1F` [Example 181, methyl (E)-3-((2,4-difluoro-phenyl)sulfonamido)-5-(4-(4-(4-oxopent-2-enoyl)piperazin-1-yl)quinazolin-6-yl)picolinate], the half-inhibitory concentration (IC50) in assay [1] (Homo sapiens, 72 h) came out at 56.2 nM; in assay [2] (72 h) it was 284 nM; at PI3Kδ (Table 4) it was 20.4 nM; at PI3Kα (Table 4), 0.73 nM.
Take `[2H]C([2H])([2H])Oc1ncc(-c2ccc3ncnc(N4CCN(C(=O)/C=C/C(C)=O)CC4)c3c2)cc1NS(=O)(=O)c1ccc(F)cc1F` [Example 191, (E)-2,4-difluoro-N-(2-(methoxy-d3)-5-(4-(4-(4-oxopent-2-enoyl)piperazin-1-yl)quinazolin-6-yl)pyridin-3-yl)benzene-sulfonamide]: the IC50 at KRAS^G12C-SOS1 amounted to 143 nM; in assay [1] (Homo sapiens, 72 h), 54.2 nM; in assay [2] (72 h), 36.4 nM; at PI3Kδ (Table 4), 16.7 nM.

The record behind these values is patent US20250145589A1, “PYRIDINE DERIVATIVE AND USE THEREOF” (SICHUAN HUIYU PHARMACEUTICAL CO., LTD., priority 2021, published 2025).
